Tests used:
[1] = test system: human embryonic stem cell line H9; assay: PCR of endoderm, extraembryonic, mesoderm and ectoderm markers after activin A treatment on MEFs; type: cell-based
Source text: The level of expression of definitive endoderm markers was examined by PCR (FIG. 1), FACS (results summarized in Table II), and immunohistochemistry (FIG. 2).
Cells were harvested at the time points indicated in FIG. 3 and assayed by PCR for the expression of genes shown (FIGS. 3, 4 and 5).
RNA extraction, purification, and CDNA synthesis: RNA samples were purified by binding to a silica-gel membrane (Rneasy Mini Kit, Qiagen, CA) in the presence of an ethanol-containing, high-salt buffer followed by washing to remove contaminants. The RNA was further purified using a TURBO DNA-free kit (Ambion, INC), and high-quality RNA was then eluted in water. Yield and purity were assessed by A260 and A280 readings on a spectrophotometer. cDNA copies were made from purified RNA using an ABI (ABI, CA) high capacity cDNA archive kit.
Final data were expressed relative to a calibrator sample.

[2] = test system: H9P49 and H1P46 embryonic stem cells; assay: Definitive endoderm on MATRIGEL: effective dose of activin A with GSK-3B inhibitor or Wnt-3a; type: cell-based, human
Source text: FIG. 31 panels a-d is for H9P49 cells and panels e-f is for H1P46 cells.

[3] = test system: H7P44 and H9P46 embryonic stem cells; assay: Definitive endoderm on […]: role of Wnt ligands (FACS CXCR4, real-time PCR); type: cell-based, human
Description: In some of the cultures 20 ng/ml Wnt-3a (Catalog#1324-WN-002, R&D Systems, MN), 20 ng/ml Wnt-5a (Catalog#654-WN-010, R&D Systems, MN), 25 ng/ml Wnt-7a (Catalog#3008-WN-025, R&D Systems, MN), or 25 ng/ml Wnt-5b (Catalog#3006-WN-025, R&D Systems, MN) was added throughout the five day treatment. FIG. 24 depicts phase contrast images of H9P46 definitive endoderm culture in the presence of high concentration of (a) AA or (b) AA+20 ng/ml Wnt-3a. FIG. 25 depicts the expression of CXCR4 by FACS at day 5 for H7P44, and H9P46 lines cultured on […]™ (1:30 dilution) and exposed to the DE protocol+Wnt-3a (FIG. 25, panels b and d) and −Wnt-3a (FIG. 25, panels a and c).

Substance	Oct4 expression ([1]; Activin A 100 ng/ml up to seven days)	Pdx1 gene expression ([1]; Activin A 100 ng/ml up to seven days, 0% to 2% serum)	expression of Brachyury ([1]; H9, 100 ng/ml activin A)	expression of neuronal marker Zic1 ([1]; H9, 100 ng/ml activin A)	expression of extraembryonic endoderm markers Sox7 and AFP ([1]; H9, 100 ng/ml activin A, 1-7 days)	anterior endoderm markers Cerberus, Otx-1 and Hex genes ([1]; H9, 100 ng/ml activin A, three and five days)	expression of CXCR4, GATA4, HNF-3beta, Mixl1 and Sox-17 mRNA ([1]; H9, 100 ng/ml activin A, two, five and eight days)	expression of definitive endoderm markers ([2]; 50 ng/ml of AA+20 ng/ml of Wnt-3A or 100 nM GSK-3B inhibitor IX)	cell fate at lower doses of activin A ([2]; lower doses of activin A)	expression of CXCR4 (CD184) by FACS ([3]; 20 ng/ml Wnt-3a in DE cultures, day 5, H7P44 and H9P46)	expression of definitive endoderm markers (real-time PCR) ([3]; low serum+AA+/-Wnt ligands, H7 and H9, five days)
Activin A: activin A (a member of the TGFβ superfamily), R&D Systems; 'w/o wnt' in Table VII = 100 ng/ml Activin A without Wnt3a	no significant decrease	no Pdx1 gene expression was observed	decreased	no effect	time-dependent decrease	significant up regulation	time-dependent increase	robust expression	formation of extraembryonic endoderm		
Wnt-3a										robust expression	significant up regulation
